Legend:
[1] = tested on: HTLV-IIIB-infected MT-4 cells; assay: Inhibitory effect of drugs on HIV-induced cell damage (trypan blue dye exclusion); type: cell-based
Description: In this experiment, there were used human MT4 cells, a human T4-positive cell line carrying adult T-cell leukemia causative virus, HTLV-1 (Gann Monogr.,1982, Vol. 28, pp. 219 -228) and HTLF-IIIB which is one of the HIV strains.
(§1) HTLV-IIIB-infected MT-4 cells were inoculated on RPMI 1640 culture mediums containing 10% heat-inactivated fetal calf serum, 100 IU/ml of penicillin and 100 μg/ml of streptomycin, to which tannic acid-S had been added in a variety of concentrations, in a cell number of 300,000/ml and were cultured at 37° C. in a carbon dioxide incubator. After the cultivation for three days, one half of the culture medium was withdrawn and the survival rate and the viable count (X 10^4 /ml) of the MT-4 cells in the medium were determined by a trypan blue dye exclusion test. To the remaining cultured cells, an equivalent amount of RPMI 1640 culture medium each containing the same amount of the drugs were added, the cultivation was further continued for additional 3 days and likewise the survival rate and the viable count were determined.

[2] = tested on: HTLV-IIIB-infected MT-4 cells; assay: Inhibitory effect on expression of HIV-specific antigen (immunofluorescence); type: cell-based
Description: After drying the cells cultured in Experiment 1 on a slide glass, they were fixed with methanol for 3 minutes and treated with human anti-HIV-III positive serum (IF antibody titer×4096) which was diluted 1/1,000 time at 37° C. for 30 minutes. Thereafter, it was washed with phosphate-buffered saline (PBS) for 15 minutes and treated with an anti-human IgG conjugated with fluorescein-isothiocyanate at 37° C. for 30 minutes. It was again washed with PBS and then the number of fluorescent cells, more specifically expressed HIV-specific virus antigen proteins were determined with a fluorescence microscope. "%" is a ratio of the number of fluorescent ray emitting cells to the number of total cells.

[3] = tested on: MOLT-4 and MOLT-4/HIV HTLV-IIIB cells; assay: Inhibitory effect on giant cell formation by mixed cultivation of MOLT-4 and MOLT-4/HIV HTLV-IIIB cells; type: cell-based, human; conditions: 24 hours co-culture, co-culture control 18.5%
Description: This experiment was performed by the recently developed method of Yamamoto et al. (see Yamamoto et al., Virology, 1988, 164, p. 542; and J. Clinical Microbiology, 1988, 26, p. 1229).
MOLT-4 cells which are HTLV-I negative human T cell strain, and MOLT-4/HIVHT LV II IB cells which are persistently HIV-infected cells are separately cultured in a RPMI 1640 culture medium supplemented with 10% fetal calf serum to a cell density of 5×10^5 /ml respectively, these were mixed in a ratio of 1:1 and the drug was added thereto.
The mixed culture medium was cultured at 37° C. for 24 hours in a carbon dioxide incubator and the distribution of cell size was determined by a Cell Multisizer (available from Coulter Electronics, Ltd., Luton, England).
In Table IX, the rate of cell having a size of not less than 20 μm is expressed by "%". If MOLT-4 cells and MOLT-4/HIVHT LV II IB cells are separately cultured, the rates are 4.5 and 3.3% respectively, but it increased up to 18.5% when they are co-cultured. When tannic acid-S was added to the mixed culture medium in a concentration of 5 μg/ml, the rate was reduced to 8.2%.

[4] = tested on: HTLV-IIIB-non-infected MT-4 cells; assay: Toxicity: influence on the proliferation of T cells; type: cell-based, human
Description: as §1
As in Experiment 1, there was observed the influence of the compounds (drugs) of the present invention on the proliferation of HTLV-IIIB-non-infected MT-4 cells. The results thus observed are listed on the following Tables XI to XIV. The numerical values in these Tables mean viable count (X 10^4 /ml) and those in parentheses mean survival rates.

[5] = Stability of powder and aqueous solution; conditions: powder state and aqueous solution
[6] = drug 50 μg/ml, culture period 3 days
[7] = drug 50 μg/ml, culture period 6 days
[8] = drug 100 μg/ml, culture period 3 days
[9] = drug 100 μg/ml, culture period 6 days
[10] = drug 200 μg/ml, culture period 3 days
[11] = drug 200 μg/ml, culture period 6 days
[12] = drug 400 μg/ml, culture period 3 days
[13] = drug 400 μg/ml, culture period 6 days

For “sodium salt of sulfated (-)-epigallocathechin-3-gallate [Epigallocatechin gallate-S]”, the Viable count [1, 6] was 830000 mL⁻¹, the survival rate [1, 6] was 85% and the Viable count [1, 7] was 1.3e+06 mL⁻¹. It also gave a survival rate [1, 7] of 92%, a Viable count [1, 8] of 840000 mL⁻¹ and a survival rate [1, 8] of 83%. The Viable count [1, 9] was 1.25e+06 mL⁻¹, the survival rate [1, 9] was 95% and the Viable count [1, 10] was 810000 mL⁻¹. The survival rate [1, 10] was 89%, the Viable count [1, 11] was 750000 mL⁻¹ and the survival rate [1, 11] was 87%. For the same substance, the Viable count [1, 12] was 720000 mL⁻¹, the survival rate [1, 12] was 82% and the Viable count [1, 13] was 500000 mL⁻¹. The survival rate [1, 13] was 86%, the “Ratio of fluorescent ray emitting cells to total cells” value (“Ratio” below) [2, 6] was less than 1% and the “Ratio” value [2, 7] was less than 1%. The “Ratio” value [2, 8] was less than 1%, the “Ratio” value [2, 9] was less than 1% and the “Ratio” value [2, 10] was less than 1%. For the same substance, the “Ratio” value [2, 11] was less than 1%, the “Ratio” value [2, 12] was less than 1% and the “Ratio” value [2, 13] was less than 1%. The “Rate of Giant Cell (cells of size not less than 20 μm)” value ([3]; drug 25 μg/ml) was 13.8%, the “Rate of Giant Cell (cells of size not less than 20 μm)” value ([3]; drug 50 μg/ml) was 17.5% and the “Rate of Giant Cell (cells of size not less than 20 μm)” value ([3]; drug 100 μg/ml) was 5.6%. The “Rate of Giant Cell (cells of size not less than 20 μm)” value ([3]; drug 200 μg/ml) was 0.4%, the Viable count [4, 6] was 1.06e+06 mL⁻¹ and the survival rate [4, 6] was 88. For the same substance, the Viable count [4, 7] was 400000 mL⁻¹, the survival rate [4, 7] was 92 and the Viable count [4, 8] was 1.14e+06 mL⁻¹. It also gave a survival rate [4, 8] of 85, a Viable count [4, 9] of 370000 mL⁻¹ and a survival rate [4, 9] of 91. It also gave a Viable count [4, 10] of 900000 mL⁻¹, a survival rate [4, 10] of 91 and a Viable count [4, 11] of 950000 mL⁻¹. It also gave a survival rate [4, 11] of 92, a Viable count [4, 12] of 960000 mL⁻¹ and a survival rate [4, 12] of 89. For the same substance, the Viable count [4, 13] was 530000 mL⁻¹, the survival rate [4, 13] was 95 and the Stability [5] was “stable in powder state and in the form of aqueous solutions”.
